ChEMBL document CHEMBL5696442, “Discovery of type II inhibitors of TGFβ-activated kinase 1 (TAK1) and mitogen-activated protein kinase kinase kinase kinase 2 (MAP4K2)” (J Med Chem, 2015)

Columns and labels:
[1] = target: T1, Scaffold protein ILK (Homo sapiens) (UniProt Q13418); assay: Inhibition of ILK Protein Kinase Domain labeling site in human Huh-7 cell lysate at 1 uM by KiNativ Profiling analysis relative to control; format: subcellular
T1 sequence (whole entry): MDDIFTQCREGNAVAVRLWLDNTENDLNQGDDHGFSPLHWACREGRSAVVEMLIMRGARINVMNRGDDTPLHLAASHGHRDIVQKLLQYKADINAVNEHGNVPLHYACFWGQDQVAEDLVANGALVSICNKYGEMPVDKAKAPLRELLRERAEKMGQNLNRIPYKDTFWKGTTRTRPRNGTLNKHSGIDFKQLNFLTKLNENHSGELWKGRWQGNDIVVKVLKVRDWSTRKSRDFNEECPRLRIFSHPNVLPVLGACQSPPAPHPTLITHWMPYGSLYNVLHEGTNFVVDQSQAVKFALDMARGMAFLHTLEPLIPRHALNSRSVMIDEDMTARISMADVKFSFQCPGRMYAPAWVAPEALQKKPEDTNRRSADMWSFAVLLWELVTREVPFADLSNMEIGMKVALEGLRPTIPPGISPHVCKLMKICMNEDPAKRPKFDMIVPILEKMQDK

[2] = target: T2, Serine/threonine-protein kinase LATS1 (Homo sapiens) (UniProt O95835); assay: Inhibition of LATS1 Lys2 labeling site in human A-375 cells at 5 uM by KiNativ Profiling analysis relative to control; format: cell-based
T2 sequence (whole entry): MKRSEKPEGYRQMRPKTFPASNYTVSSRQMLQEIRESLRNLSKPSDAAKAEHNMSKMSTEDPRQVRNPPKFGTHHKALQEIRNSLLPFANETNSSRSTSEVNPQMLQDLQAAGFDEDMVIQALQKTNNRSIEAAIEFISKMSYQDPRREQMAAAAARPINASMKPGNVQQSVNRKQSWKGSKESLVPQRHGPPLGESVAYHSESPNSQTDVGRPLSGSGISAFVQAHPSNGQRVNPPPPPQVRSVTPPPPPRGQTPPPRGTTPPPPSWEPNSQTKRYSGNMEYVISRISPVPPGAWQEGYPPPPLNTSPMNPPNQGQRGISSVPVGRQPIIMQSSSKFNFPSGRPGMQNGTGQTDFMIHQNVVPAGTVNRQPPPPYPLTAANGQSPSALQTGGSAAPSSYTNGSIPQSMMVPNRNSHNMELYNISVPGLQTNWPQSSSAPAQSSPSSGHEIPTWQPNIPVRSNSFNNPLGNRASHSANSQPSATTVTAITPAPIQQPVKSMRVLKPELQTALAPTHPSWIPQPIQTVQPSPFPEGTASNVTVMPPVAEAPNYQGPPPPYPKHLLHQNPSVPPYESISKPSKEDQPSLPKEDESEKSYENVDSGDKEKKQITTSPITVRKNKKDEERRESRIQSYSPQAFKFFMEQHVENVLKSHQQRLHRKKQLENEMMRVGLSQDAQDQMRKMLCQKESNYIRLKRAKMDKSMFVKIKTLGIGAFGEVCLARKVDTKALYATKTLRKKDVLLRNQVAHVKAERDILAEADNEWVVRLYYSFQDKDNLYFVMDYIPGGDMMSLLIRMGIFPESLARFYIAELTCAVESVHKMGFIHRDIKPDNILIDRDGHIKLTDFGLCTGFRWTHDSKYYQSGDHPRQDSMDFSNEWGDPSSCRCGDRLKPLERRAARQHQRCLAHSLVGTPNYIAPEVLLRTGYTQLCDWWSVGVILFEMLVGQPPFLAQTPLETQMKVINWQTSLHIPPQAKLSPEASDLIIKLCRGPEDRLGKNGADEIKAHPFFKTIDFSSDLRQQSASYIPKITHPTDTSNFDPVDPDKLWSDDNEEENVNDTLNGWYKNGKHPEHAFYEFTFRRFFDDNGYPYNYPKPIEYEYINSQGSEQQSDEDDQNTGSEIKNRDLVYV

[3] = target: Casein kinase II subunit alpha (Homo sapiens) (UniProt P68400); assay: Inhibition of CK2a1 in human Huh-7 cells at 1 uM by KiNativ Profiling analysis relative to control; format: cell-based
Chain of Casein kinase II subunit alpha (Homo sapiens) (P68400 whole entry, looked up, the tested form may be a part): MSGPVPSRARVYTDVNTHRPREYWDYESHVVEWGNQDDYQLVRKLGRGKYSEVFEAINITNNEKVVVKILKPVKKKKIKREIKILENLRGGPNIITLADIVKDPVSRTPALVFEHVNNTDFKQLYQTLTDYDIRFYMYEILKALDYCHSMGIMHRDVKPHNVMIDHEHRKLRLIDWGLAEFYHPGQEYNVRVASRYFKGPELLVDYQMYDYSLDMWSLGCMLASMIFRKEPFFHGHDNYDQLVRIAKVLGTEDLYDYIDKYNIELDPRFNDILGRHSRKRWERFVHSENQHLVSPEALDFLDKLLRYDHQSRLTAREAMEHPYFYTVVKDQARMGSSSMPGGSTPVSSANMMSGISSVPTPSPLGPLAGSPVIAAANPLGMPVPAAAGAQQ

[4] = target: Epithelial discoidin domain-containing receptor 1 (Homo sapiens) (UniProt Q08345); assay: Inhibition of DDR1 (unknown origin) at 10 uM by Ambit Kinomescan binding assay; values are per cent of control
Chain of Epithelial discoidin domain-containing receptor 1 (Homo sapiens) (Q08345 whole entry, the tested form may be a part): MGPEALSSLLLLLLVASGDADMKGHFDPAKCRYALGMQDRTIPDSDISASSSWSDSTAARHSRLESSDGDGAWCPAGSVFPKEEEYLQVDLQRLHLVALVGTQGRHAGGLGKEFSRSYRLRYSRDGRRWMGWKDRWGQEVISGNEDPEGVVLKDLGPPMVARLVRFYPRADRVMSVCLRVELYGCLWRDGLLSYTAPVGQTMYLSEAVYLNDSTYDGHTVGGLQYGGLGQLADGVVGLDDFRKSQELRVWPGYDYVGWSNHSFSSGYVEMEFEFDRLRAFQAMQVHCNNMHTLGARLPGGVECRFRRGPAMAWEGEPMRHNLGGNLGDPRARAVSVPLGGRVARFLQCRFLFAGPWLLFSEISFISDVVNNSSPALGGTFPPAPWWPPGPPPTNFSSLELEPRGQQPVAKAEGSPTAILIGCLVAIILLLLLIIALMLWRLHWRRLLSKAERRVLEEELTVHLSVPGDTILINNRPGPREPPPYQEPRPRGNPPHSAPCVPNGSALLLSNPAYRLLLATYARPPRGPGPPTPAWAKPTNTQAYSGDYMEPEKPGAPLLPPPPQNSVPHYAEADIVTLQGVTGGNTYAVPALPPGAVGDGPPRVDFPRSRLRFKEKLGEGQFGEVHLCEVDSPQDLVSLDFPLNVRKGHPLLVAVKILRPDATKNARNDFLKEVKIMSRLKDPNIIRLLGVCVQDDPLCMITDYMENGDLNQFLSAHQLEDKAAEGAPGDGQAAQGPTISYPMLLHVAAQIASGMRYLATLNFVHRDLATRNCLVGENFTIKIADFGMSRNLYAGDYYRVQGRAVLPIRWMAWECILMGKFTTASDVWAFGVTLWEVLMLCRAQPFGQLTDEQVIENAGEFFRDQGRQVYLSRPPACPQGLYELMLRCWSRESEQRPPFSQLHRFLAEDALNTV

[5] = target: T3, Inhibitor of nuclear factor kappa-B kinase subunit alpha (Homo sapiens) (UniProt O15111); assay: Inhibition of IKK-alpha (unknown origin) at 1 uM by Ambit Kinomescan binding assay relative to control; values are per cent of control
T3 sequence (whole entry): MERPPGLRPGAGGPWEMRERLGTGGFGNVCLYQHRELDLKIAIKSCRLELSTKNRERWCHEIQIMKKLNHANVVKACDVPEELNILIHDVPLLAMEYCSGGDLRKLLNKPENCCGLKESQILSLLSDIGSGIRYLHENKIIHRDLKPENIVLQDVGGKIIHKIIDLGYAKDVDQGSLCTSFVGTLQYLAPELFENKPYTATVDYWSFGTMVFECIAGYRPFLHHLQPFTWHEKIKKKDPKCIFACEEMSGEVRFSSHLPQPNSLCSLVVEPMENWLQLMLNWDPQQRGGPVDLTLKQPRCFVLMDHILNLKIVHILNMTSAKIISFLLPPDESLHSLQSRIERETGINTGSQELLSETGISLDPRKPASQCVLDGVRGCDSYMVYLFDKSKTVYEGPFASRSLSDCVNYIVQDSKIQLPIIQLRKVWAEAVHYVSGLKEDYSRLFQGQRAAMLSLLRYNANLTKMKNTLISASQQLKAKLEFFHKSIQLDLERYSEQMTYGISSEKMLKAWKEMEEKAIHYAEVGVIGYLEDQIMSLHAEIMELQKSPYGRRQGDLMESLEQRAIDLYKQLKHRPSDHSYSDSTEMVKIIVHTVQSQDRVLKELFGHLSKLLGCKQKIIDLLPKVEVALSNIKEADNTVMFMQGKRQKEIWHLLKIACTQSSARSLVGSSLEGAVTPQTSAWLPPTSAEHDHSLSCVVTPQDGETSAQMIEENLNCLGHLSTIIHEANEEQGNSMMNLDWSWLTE

**Q.** For `CNc1cc(Oc2cc(C(=O)Nc3cc(N4CCN(C)CC4)cc(C(F)(F)F)c3)ccc2C)ncn1`, which inhibition [1] is on record?
**A.** The inhibition was -2.4%.

**Q.** Which inhibition [2] does the source give for `CCN1CCN(Cc2ccc(NC(=O)c3ccc(C)c(Oc4ccnc5[nH]ccc45)c3)cc2C(F)(F)F)CC1` here?
**A.** The inhibition was -6.4%.

**Q.** And the inhibition [3]?
**A.** Its inhibition is 16%.

**Q.** And the percent of control [4]?
**A.** The percent of control was 0.05%.

**Q.** Which residual activity [5] does the source give for `CCN1CCN(Cc2ccc(NC(=O)c3ccc(C)c(/C=C/c4cnc5[nH]ccc5c4OC)c3)cc2C(F)(F)F)CC1` here?
**A.** Its residual activity is 2%.
